From publication PMC10461232, “Structure-Based Design of Transport-Specific Multitargeted One-Carbon Metabolism Inhibitors in Cytosol and Mitochondria” (Journal of Medicinal Chemistry, 2023)

Key:
PC43-10 (RFC) CHO cells = details: classic antifolates, CHO cells expressing human RFC; previously published; cited from earlier work
RT16 (FRα) CHO cells = details: classic antifolates, CHO cells expressing human FRα; previously published; cited from earlier work
SHMT1 = target: T1, SHMT1 (Homo sapiens, UniProt P34896); assay: SHMT1 inhibition assay coupled with MTHFD2, Ki; assay type: biochemical; details: purified His-SHMT1, 50 μM THF, 25 °C; mean (SD), at least 3 replicates
T1 construct: full-length SHMT1 with an N-terminal His6-tag; made in house; host or cells: E. coli Rosetta (DE3)pLysS
T1 sequence (P34896 1-483): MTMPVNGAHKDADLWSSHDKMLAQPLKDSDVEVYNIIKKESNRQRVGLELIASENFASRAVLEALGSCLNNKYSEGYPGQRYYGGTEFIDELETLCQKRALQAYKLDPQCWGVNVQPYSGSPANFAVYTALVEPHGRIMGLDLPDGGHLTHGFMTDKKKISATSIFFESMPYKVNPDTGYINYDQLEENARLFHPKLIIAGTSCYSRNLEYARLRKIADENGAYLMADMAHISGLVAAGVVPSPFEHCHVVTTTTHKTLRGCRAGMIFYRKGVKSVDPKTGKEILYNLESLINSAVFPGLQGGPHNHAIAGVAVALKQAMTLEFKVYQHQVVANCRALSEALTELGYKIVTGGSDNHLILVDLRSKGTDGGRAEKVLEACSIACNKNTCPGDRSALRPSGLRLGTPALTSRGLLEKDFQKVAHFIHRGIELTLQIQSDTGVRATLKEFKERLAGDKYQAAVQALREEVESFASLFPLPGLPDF
Method: Kinetic measurements were recorded in triplicate using a flat, black-bottom, black-walled 96-well plate (Greiner Bio-One, 655900) and a BioTek Synergy Neo2 Plate Reader. […] To assay SHMT1 or SHMT2 (SHMT1/2) enzymes, a coupled reaction with His-MTHFD2 in 200-fold molar excess was used where the production of NADH was monitored by fluorescence with excitation at 360 nm and emission at 470 nm at 25 °C. The reactions contained 5 nM His-SHMT1/2, 50 μM THF, 20 mM serine, 10 μM His-MTHFD2, 2.5 mM NAD^+, and a range of inhibitor concentrations (final concentrations). The reactions were performed in buffer containing 20 mM sodium phosphate, pH 7.5, 100 mM KCl, 0.2 mM EDTA, and 5 mM β-Me. A BioTek Synergy Neo2 Plate Reader was used to record kinetic measurements in triplicate in a UV-transparent 96-well plate (Costar 3635) for GARFTase and AICARFTase assays and a black-well, black-bottom 96-well plate (Corning 3603). To calculate IC50 values for each inhibitor, initial velocities were graphed as a function of inhibitor concentrations and fit with a three-parameter nonlinear regression (GraphPad Prism 8.0). The equation [Ki = IC50/([S]/KM + 1)] was used to convert IC50’s to Ki values.

human ATIC = target: T2, human ATIC (Homo sapiens, UniProt P31939); assay: AICARFTase (ATIC) inhibition assay, Ki; assay type: biochemical; details: purified His-ATIC, AICARFTase activity, 50 μM 10-formyl THF, 25 °C; mean (SD), at least 3 replicates
T2 construct: N-terminal His6-tagged full-length human ATIC; made in house; host or cells: E. coli Rosetta (DE3)pLysS
Method: The cells were grown at 37 °C in 1 L cultures of LB media containing […] and […] until OD600 reached 0.6. Protein expression was induced by the addition of isopropyl β-D1-thiogalactopyranoside (IPTG, 500 μM).
His-ATIC was purified by Ni-NTA chromatography (Gold Biotechnology).[36] […] His-ATIC was eluted in 1 column volume fractions, 5 times with buffer containing 300 mM imidazole, 25 mM Tris-HCl, pH 7.5, 300 mM NaCl, and 5 mM β-Me. Size exclusion chromatography on a Superdex 200 16/60 (GE Healthcare) column was used for final purification using 20 mM Tris-HCl, pH 7.5, 150 mM NaCl, 50 mM KCl, 5 mM EDTA, and 5 mM dithiothreitol.
(§1) MTHFD2 activities were assayed by a reaction with methylene THF and NAD^+. NADH production was measured by fluorescence (excitation 340 nm, emission 480 nm). Reaction conditions included 100 nM MTHFD2, 5 μM methylene THF, and concentrations of small-molecule inhibitor ranging from 0.02 nM to 2000 nM; NAD^+ (2.5 mM) was added to initiate the reaction. The reaction buffer consisted of 50 mM Tris-HCl, pH 7.5, 250 mM NaCl, 5 mM magnesium chloride, 5% glycerol, and 0.5 mM TCEP. […] To assay SHMT1 or SHMT2 (SHMT1/2) enzymes, a coupled reaction with His-MTHFD2 in 200-fold molar excess was used where the production of NADH was monitored by fluorescence with excitation at 360 nm and emission at 470 nm at 25 °C. The reactions contained 5 nM His-SHMT1/2, 50 μM THF, 20 mM serine, 10 μM His-MTHFD2, 2.5 mM NAD^+, and a range of inhibitor concentrations (final concentrations). The reactions were performed in buffer containing 20 mM sodium phosphate, pH 7.5, 100 mM KCl, 0.2 mM EDTA, and 5 mM β-Me. […] To calculate IC50 values for each inhibitor, initial velocities were graphed as a function of inhibitor concentrations and fit with a three-parameter nonlinear regression (GraphPad Prism 8.0). The equation [Ki = IC50/([S]/KM + 1)] was used to convert IC50’s to Ki values.

human GARFTase = target: T3, human GARFTase (Homo sapiens, UniProt P22102); assay: GARFTase inhibition assay, Ki (10-formyl THF to THF, absorbance 298 nm); assay type: biochemical; details: purified His-GARFTase, 40 μM 10-formyl THF, 37 °C; mean (SD), at least 3 replicates
T3 construct: formyltransferase domain of human GARFTase (residues 808–1010); made in house; host or cells: E. coli Rosetta (DE3)pLysS
T3 sequence (P22102 808-1010): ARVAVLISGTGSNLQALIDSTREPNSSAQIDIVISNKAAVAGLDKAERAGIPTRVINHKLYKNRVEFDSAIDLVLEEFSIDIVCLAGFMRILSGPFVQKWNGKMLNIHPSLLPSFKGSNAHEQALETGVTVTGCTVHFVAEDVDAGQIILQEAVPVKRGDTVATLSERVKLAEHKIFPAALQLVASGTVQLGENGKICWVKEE

D4 (FRβ) CHO cells = details: classic antifolates, CHO cells expressing human FRβ; previously published; cited from earlier work
KB (RFC/PCFT/FRα) cells = assay: Growth inhibition, KB nasopharyngeal carcinoma cells; assay type: cell-based, human; details: Homo sapiens, KB, folate-free RPMI 1640, 2 nM leucovorin, mean (SE)
Method: The CHO cells were cultured in α-minimal essential medium (MEM) supplemented with 10% bovine calf serum (Fisher Scientific), penicillin (1000 U/mL)/streptomycin (1000 μg/mL), and 2 mM L-glutamine at 37 °C with 5% CO2. All of the R2 transfected cells (PC43-10, RT16, R2/PCFT4) were cultured in complete α-MEM media plus 1 mg/mL G418. Prior to the cytotoxicity assays (see below), RT16 and D4 cells were cultured for 3 days in complete folate-free RPMI 1640 (without added folate), and R2/PCFT4 and R2 cells were cultured in complete folate-free RPMI 1640 supplemented with dialyzed fetal bovine serum (Fisher Scientific) and 25 nM leucovorin plus 1 mg/mL G418. KB cells were routinely cultured in folate-free RPMI 1640 medium, supplemented with 10% fetal bovine serum (Fisher Scientific), penicillin-streptomycin solution, and 2 mM L-glutamine at 37 °C with 5% CO2.
For growth inhibition studies, cells (CHO, KB) were plated in 96-well dishes (∼2500–5000 cells/well, total volume of 200 μL medium) over a range of antifolate concentrations.[69],[77] The medium was folate-free RPMI 1640 with 10% dialyzed serum and antibiotics supplemented with 25 nM leucovorin for experiments with R2, PC43-10, and R2/PCFT4 cells. For experiments with RT16, D4, and KB cells, cells were cultured in folate-free RPMI medium with 10% dialyzed fetal bovine serum and antibiotics; the medium was supplemented with 2 nM leucovorin. […] Incubations were routinely for up to 96 h. Viable cells (reflecting cell viability) were assayed with Cell Titer Blue reagent (Promega, Madison, WI), with fluorescence measured (590 nm emission, 560 nm excitation) with a fluorescence plate reader.

SHMT2 = target: T4, SHMT2 (Homo sapiens, UniProt P34897); assay: SHMT2 inhibition assay coupled with MTHFD2, Ki; assay type: biochemical; details: purified His-SHMT2, 50 μM THF, 25 °C; mean (SD), at least 3 replicates
T4 construct: made in house; host or cells: E. coli Rosetta (DE3)pLysS
T4 sequence (P34897 30-504): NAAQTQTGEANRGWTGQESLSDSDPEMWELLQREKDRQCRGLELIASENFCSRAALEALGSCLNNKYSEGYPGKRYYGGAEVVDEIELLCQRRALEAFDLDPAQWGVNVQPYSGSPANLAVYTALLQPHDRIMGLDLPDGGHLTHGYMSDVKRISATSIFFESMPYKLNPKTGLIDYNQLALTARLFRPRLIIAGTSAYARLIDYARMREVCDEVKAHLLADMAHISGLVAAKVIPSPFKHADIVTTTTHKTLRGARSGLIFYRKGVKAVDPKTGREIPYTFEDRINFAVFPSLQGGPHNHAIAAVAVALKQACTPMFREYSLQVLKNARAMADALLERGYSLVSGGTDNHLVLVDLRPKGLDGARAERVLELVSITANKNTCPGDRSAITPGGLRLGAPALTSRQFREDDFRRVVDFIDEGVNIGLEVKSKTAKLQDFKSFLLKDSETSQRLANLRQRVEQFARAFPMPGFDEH
Method: as §1

KB tumor cells = assay: Metabolite rescue of growth inhibition in KB tumor cells; assay type: cell-based, human; details: serine- and glycine-free medium, adenosine 60 μM
Excerpt: To confirm the targeted pathways for the pyrrolo[3,2-d]pyrimidine antifolates in tumor cells, we treated KB human tumor cells cultured in serine- and glycine-free media with the pyrrolo[3,2-d]pyrimidine compounds (4–9, 11–16) to test for the rescue by added nucleosides and glycine. Results were compared to those for AGF94, a pyrrolo[2,3-d]pyrimidine antifolate that inhibits GARFTase without effects on SHMT2,[69] and to compounds 1, 2, and 3, documented inhibitors of mitochondrial C1 metabolism and de novo purine biosynthesis in human tumor cells.[36] The results are shown in Figures 15 and S11 (Supplemental Information). […]
For some experiments with KB tumor cells, cells were cultured in serine-, glycine-, and folate-free RPMI 1640 (Fisher Scientific), supplemented with 10% dialyzed fetal bovine serum, antibiotics, 25 nM leucovorin, and 2 mM L-glutamine. In vitro growth inhibition was measured (above), without additions, or in the presence of folic acid (200 nM), or thymidine (10 μM), adenosine (60 μM), 5-aminoimidazole-4-carboxamide (AICA) (320 μM), and/or glycine (130 μM) to establish the inhibitory effects of the antifolate drugs on de novo thymidylate synthase versus de novo purine nucleotide biosynthesis (GARFTase and AICARFTase) or mitochondrial C1 metabolism at SHMT2.[36],[63],[64],[68],[69] […]

T2 sequence (P31939 whole entry): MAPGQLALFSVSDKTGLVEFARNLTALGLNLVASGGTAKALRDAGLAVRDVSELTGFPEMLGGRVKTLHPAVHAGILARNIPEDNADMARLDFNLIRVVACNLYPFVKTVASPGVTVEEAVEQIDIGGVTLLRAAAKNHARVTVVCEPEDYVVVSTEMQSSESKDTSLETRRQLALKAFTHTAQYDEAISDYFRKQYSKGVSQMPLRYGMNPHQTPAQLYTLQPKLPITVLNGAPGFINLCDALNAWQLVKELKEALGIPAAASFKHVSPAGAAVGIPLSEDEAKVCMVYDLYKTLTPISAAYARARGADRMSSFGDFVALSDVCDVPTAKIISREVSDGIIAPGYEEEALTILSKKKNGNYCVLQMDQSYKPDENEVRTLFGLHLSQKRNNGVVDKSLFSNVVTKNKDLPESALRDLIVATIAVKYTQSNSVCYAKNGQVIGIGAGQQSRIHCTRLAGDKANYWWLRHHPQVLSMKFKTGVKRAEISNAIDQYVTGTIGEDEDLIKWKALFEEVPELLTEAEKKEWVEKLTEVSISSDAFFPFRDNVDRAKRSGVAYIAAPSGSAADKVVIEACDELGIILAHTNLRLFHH

Ki (SHMT1)	Ki (human ATIC)	Ki (human GARFTase)	IC50 (KB (RFC/PCFT/FRα) cells)	Ki (SHMT2)	SMILES	IC50 (PC43-10 (RFC) CHO cells)	IC50 (RT16 (FRα) CHO cells)	IC50 (D4 (FRβ) CHO cells)	effect of adenosine alone on growth inhibition (KB tumor cells)
> 200 µM	> 200 µM	> 150 µM	0.00047 µM	> 200 µM	C#CCC(Cc1cnc2nc(N)nc(N)c2n1)c1ccc(C(=O)N[C@@H](CCC(=O)O)C(=O)O)cc1 (stereo partly drawn) [PDX, N-(4-{1-[(2,4-diaminopteridin-6-yl)methyl]but-3-yn-1-yl}benzoyl)-L-glutamic acid]	0.00069 µM	0.043 µM	0.0025 µM	
> 200 µM				> 200 µM	Nc1nc2[nH]cc(CCc3ccc(C(=O)N[C@@H](CCC(=O)O)C(=O)O)cc3)c2c(=O)[nH]1 [PMX, N-{4-[2-(2-amino-3,4-dihydro-4-oxo-7H-pyrrolo[2,3-d]pyrimidin-5-yl)ethyl]benzoyl}-L-glutamic acid]				
					Nc1nc2[nH]c(CCCc3ccc(C(=O)N[C@@H](CCC(=O)O)C(=O)O)s3)cc2c(=O)[nH]1 [AGF94, (S)-2-({5-[3-(2-amino-4-oxo-4,7-dihydro-3H-pyrrolo[2,3-d]pyrimidin-6-yl)-propyl]-thiophene-2-carbonyl}-amino)-pentanedioic acid]				completely reversed

SMILES	Ki (SHMT1)	Ki (human ATIC)	Ki (human GARFTase)	IC50 (KB (RFC/PCFT/FRα) cells)	Ki (SHMT2)	IC50 (PC43-10 (RFC) CHO cells)	IC50 (RT16 (FRα) CHO cells)	IC50 (D4 (FRβ) CHO cells)	effect of adenosine alone on growth inhibition (KB tumor cells)
CN(Cc1cnc2nc(N)nc(N)c2n1)c1ccc(C(=O)N[C@@H](CCC(=O)O)C(=O)O)cc1 [MTX, methotrexate]	> 200 µM				98 ± 17 µM				
